Measurements taken from patent US20100119479A1, “THERAPEUTIC ANTIVIRAL PEPTIDES” (INTERMUNE, INC., priority 2008, published 2010).

Key:
[1] = system: HCV sub-genomic replicon, GS4.3 (HuH-7 hepatoma cells); test: Quantitation by ELISA of NPTII in the HCV sub-genomic replicon, GS4.3; format: cell-based; conditions: Hepatitis C virus, GS4.3 replicon cells, 72 h incubation
Text: Quantitation by ELISA of the Selectable Marker Protein, Neomycin Phosphotransferase II (NPTII) in the HCV Sub-Genomic Replicon, GS4.3
The HCV sub-genomic replicon (1377/NS3-3′, accession No. AJ242652), stably maintained in HuH-7 hepatoma cells, was created by Lohmann et al. Science 285: 110-113 (1999). The replicon-containing cell culture, designated GS4.3, was obtained from Dr. Christoph Seeger of the Institute for Cancer Research, Fox Chase Cancer Center, Philadelphia, Pa.
GS4.3 cells were maintained at 37° C., 5% CO2, in DMEM (Gibco 11965-092) supplemented with L-glutamine 200 mM (100×) (Gibco25030-081), non-essential amino acids (NEAA)(Biowhittaker 13-114E), heat-inactivated (HI) Fetal Bovine Serum(FBS)(Hyclone SH3007.03) and 750 μg/mL geneticin (G418)(Gibco 10131-035). Cells were sub-divided 1:3 or 4 every 2-3 days.
24 h prior to the assay, GS4.3 cells were collected, counted, and plated in 96-well plates (Costar 3585) at 7500 cells/well in […] standard maintenance medium (above) and incubated in the conditions above. To initiate the assay, culture medium was removed, cells were washed once with PBS (Gibco 10010-023) and 90 μl Assay Medium (DMEM, L-glutamine, NEAA, 10% HI FBS, no G418) was added. Inhibitors were made as a 10× stock in Assay Medium, (3-fold dilutions from 10 μM to […] final concentration, final DMSO concentration 1%), […] were added to duplicate wells, plates were rocked to mix, and incubated as above for 72 h.
An NPTII Elisa kit was obtained from AGDIA, Inc. (Compound direct ELISA test system for Neomycin Phosphotransferase II, PSP 73000/4800). Manufacturer's instructions were followed, with some modifications. 10×PEB-1 lysis buffer was made up to include 500 μM PMSF (Sigma P7626, 50 mM stock in isopropanol). After 72 h incubation, cells were washed once with PBS and […] PEB-1 with PMSF was added per well. Plates were agitated vigorously for 15 minutes, room temperature, then frozen at −70° C. Plates were thawed, lysates were mixed thoroughly, and 100 μl were applied to an NPTII Elisa plate. A standard curve was made. Lysate from DMSO-treated control cells was pooled, serially diluted with PEB-1 with PMSF, and applied to duplicate wells of the ELISA plate, in a range of initial lysate amount of 150 μL-2.5 μL. In addition, 100 μL buffer alone was applied in duplicate as a blank. Plates were sealed and gently agitated at room temperature for 2 h. Following capture incubation, the plates were washed 5×300 μL with PBS-T (0.5% Tween-20, PBS-T was supplied in the ELISA kit). For detection, a 1× dilution of enzyme conjugate diluent MRS-2 (5×) was made in PBS-T, into which 1:100 dilutions of enzyme conjugates A and B were added, as per instructions. Plates were resealed, and incubated with agitation, covered, room temperature, for 2 h. The washing was then repeated and 100 μL, of room temperature TMB substrate was added. After approximately 30 minutes incubation (room temperature, agitation, covered), the reaction was stopped with 50 μL, 3M sulfuric acid. Plates were read at 450 nm on a Molecular Devices Versamax plate reader.
Inhibitor effect was expressed as a percentage of DMSO-treated control signal, and inhibition curves were calculated using a 4-parameter equation: y=A+((B−A)/(1+((C/x)̂D))), where C is half-maximal activity or EC50.

[2] = target: T1, full-length NS3/NS4A-2 (HCV NS3 protease) (Hepatitis C virus genotype 1b, UniProt Q9WMX2); test: NS3 Inhibition Assay (NS3-NS4 protease assay, RETS1 substrate); format: biochemical; conditions: NS3/NS4A-2 protease
T1 construct: Recombinant E. coli or Baculovirus full-length NS3; host or cells: E. coli or baculovirus (BV) expression
Description: NS3 Complex Formation with NS4A-2.
Recombinant E. coli or Baculovirus full-length NS3 was diluted to 3.33 μM with assay buffer and transferred material to an eppendorf tube and placed in a water bath in a 4° C. refrigerator. The appropriate amount of NS4A-2 diluted to […] in assay buffer was added to equal the volume of NS3 above (conversion factor—3.8 mg/272 μL assay buffer). The material was transferred to an eppendorf tube and placed in water bath in a 4° C. refrigerator.
After equilibration to 4° C., equal volumes of NS3 and NS4A-2 solutions were combined in an eppendorf tube, mix gently with a manual pipettor, and incubate mixture for 15 minutes in the 4° C. water bath. Final concentrations in the mixture are 1.67 μM NS3, 4.15 mM NS4A-2 (2485-fold molar excess NS4A-2).
After 15 minutes at 4° C., the NS3/NS4A-2 eppendorf tube was removed and place it in a room temperature water bath for 10 minutes. NS3/NS4A-2 was aliquoted at appropriate volumes and store at −80° C. (E. coli NS3 run at 2 nM in assay, aliquot at 25 μL. BV NS3 run at 3 nM in assay, aliquot at 30 μL).
Step a. Sample compounds were dissolved to 10 mM in DMSO then diluted to 2.5 mM (1:4) in DMSO. Typically, compounds were added to an assay plate at 2.5 mM concentration, yielding upon dilution a starting concentration of 50 microM in the assay inhibition curve. Compounds were serial diluted in assay buffer to provide test solutions at lower concentrations.
Step b. The E. coli. NS3/NS4A-2 was diluted to 4 nM NS3 (1:417.5 of 1.67 μM stock−18 μL1.67 μM stock+7497 μL assay buffer). The BV NS3/NS4A-2 was diluted to 6 nM NS3 (1:278.3 of 1.67 μM stock−24 μL1.67 μM stock+6655 μL assay buffer).
Step c. Using the manual multichannel pipettor, and being careful not to introduce bubbles into the plate, 50 μL assay buffer were added to wells A01-H01 of a black Costar 96-well polypropylene storage plate.
Step d. Using the manual multichannel pipettor, and being careful not to introduce bubbles into the plate, 50 μL of diluted NS3/NS4A-2 from Step b were added to wells A02-H12 of the plate in Step c.
Step e. Using the manual multichannel pipettor, and being careful not to introduce bubbles into the plate, 25 μL of the wells in drug dilution plate in Step a were transferred to corresponding wells in assay plate in Step d. The tips on the multichannel pipettor were changed for each row of compounds transferred.
Step f Using the manual multichannel pipettor, and being careful not to introduce bubbles into the plate, the contentes of the wells from the assay plate in Step e were mixed by aspirating and dispensing 35 μL of the 75 μL in each well five times. The tips on multichannel pipettor were changed for each row of wells mixed.
Step g. The plate was covered with a polystyrene plate lid, and the plate from Step f containing NS3 protease and sample compounds was pre-incubated 10 minutes at room temperature.
While plate from Step g is pre-incubating, the RETS1 substrate was diluted in a 15 mL polypropylene centrifuge tube. The RETS1 substrate was diluted to 8 μM (1:80.75 of 646 μM stock—65 μL 646 μM stock+5184 μL assay buffer).
After the plate in Step g was done pre-incubating, and using the manual multichannel, 25 μL of substrate were added to all wells on the plate. The contents of the wells of the plate were quickly mixed, as in Step f, mixing 65 μL of the 100 μL in the wells.
The plate was read in kinetic mode on the Molecular Devices SpectraMax Gemini XS plate reader. Reader settings: Read time: 30 minutes, Interval: 36 seconds, Reads: 51, Excitation λ: 335 nm, Emission λ: 495 nm, cutoff: 475 nm, Automix: off, Calibrate: once, PMT: high, Reads/well: 6, Vmax pts: 21 or 28/51 depending on length of linearity of reaction
IC50s are determined using a four parameter curve fit equation, and converted to Ki's using the following Km's: […]
Full-length E. coli NS3−2.03 μM
Full-length BV NS3−1.74 μM
where Ki=IC50/(1+[S]/Km))

T1 sequence (Q9WMX2 1027-1657): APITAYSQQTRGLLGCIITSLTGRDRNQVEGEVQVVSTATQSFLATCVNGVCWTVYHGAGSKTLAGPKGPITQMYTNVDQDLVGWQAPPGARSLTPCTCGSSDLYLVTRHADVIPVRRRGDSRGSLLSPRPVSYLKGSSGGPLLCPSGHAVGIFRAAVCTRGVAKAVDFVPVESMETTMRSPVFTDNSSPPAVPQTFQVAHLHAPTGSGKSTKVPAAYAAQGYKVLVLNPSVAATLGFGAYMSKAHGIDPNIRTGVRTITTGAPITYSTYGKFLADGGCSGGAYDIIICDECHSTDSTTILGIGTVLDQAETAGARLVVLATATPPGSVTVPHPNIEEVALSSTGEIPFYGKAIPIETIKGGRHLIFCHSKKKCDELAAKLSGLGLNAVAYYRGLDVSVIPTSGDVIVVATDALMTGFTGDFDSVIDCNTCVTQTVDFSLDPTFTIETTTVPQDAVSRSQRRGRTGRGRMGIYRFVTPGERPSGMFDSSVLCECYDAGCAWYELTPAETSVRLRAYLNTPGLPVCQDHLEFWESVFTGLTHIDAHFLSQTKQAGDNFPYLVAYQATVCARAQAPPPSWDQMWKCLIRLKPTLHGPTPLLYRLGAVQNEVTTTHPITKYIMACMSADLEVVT
T1 sequence (Q9WMX2 1658-1711): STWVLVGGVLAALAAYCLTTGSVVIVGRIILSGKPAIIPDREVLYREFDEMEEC

Structure (SMILES): C=C[C@@H]1C[C@]1(NC(=O)[C@@H]1C[C@@H](OC(=O)N2Cc3cccc(F)c3C2)CN1C(=O)[C@@H](Nc1cc(F)cc(C(F)(F)F)c1)C(C)(C)C)C(=O)NS(=O)(=O)C1(C)CC1 [Compound 288]
- EC50 [1]: < 100 nM
- IC50 [2]: < 100 nM

Structure (SMILES): CC[C@@H]1C[C@]1(NC(=O)[C@@H]1C[C@@H](OC(=O)N2Cc3cccc(F)c3C2)CN1C(=O)[C@@H](Nc1cccc(OC(F)(F)F)c1)C(C)(C)C)C(=O)NS(=O)(=O)C1(C)CC1 [Compound 289]
- EC50 [1]: < 100 nM
- IC50 [2]: < 100 nM

Structure (SMILES): CC[C@@H]1C[C@]1(NC(=O)[C@@H]1C[C@@H](OC(=O)N2Cc3cccc(F)c3C2)CN1C(=O)[C@@H](Nc1cccc(C(F)(F)F)c1)C(C)(C)C)C(=O)NS(=O)(=O)C1(C)CC1 [Compound 290]
- EC50 [1]: < 100 nM
- IC50 [2]: < 100 nM

Structure (SMILES): CC[C@@H]1C[C@]1(NC(=O)[C@@H]1C[C@@H](OC(=O)N2Cc3ccc(OC)cc3C2)CN1C(=O)[C@@H](Nc1cc(F)cc(C(F)(F)F)c1)C(C)(C)C)C(=O)NS(=O)(=O)C1(C)CC1 [Compound 291]
- EC50 [1]: < 100 nM
- IC50 [2]: < 100 nM

Structure (SMILES): CC(C)(C)[C@H](Nc1cc(F)cc(C(F)(F)F)c1)C(=O)N1C[C@H](OC(=O)N2Cc3cccc(Cl)c3C2)C[C@H]1C(=O)N[C@]1(C(=O)NS(=O)(=O)C2CC2)C[C@H]1C1CC1 [Compound 292]
- EC50 [1]: < 100 nM
- IC50 [2]: < 100 nM

Structure (SMILES): CC(C)(C)[C@H](Nc1cccc(C(F)(F)F)c1)C(=O)N1C[C@H](OC(=O)N2Cc3cccc(Cl)c3C2)C[C@H]1C(=O)N[C@]1(C(=O)NS(=O)(=O)C2CC2)C[C@H]1C1CC1 [Compound 293]
- EC50 [1]: < 100 nM
- IC50 [2]: < 100 nM

Structure (SMILES): CC(C)(C)[C@H](Nc1ccc(F)c(C(F)(F)F)c1)C(=O)N1C[C@H](OC(=O)N2Cc3cccc(Cl)c3C2)C[C@H]1C(=O)N[C@]1(C(=O)NS(=O)(=O)C2CC2)C[C@H]1C1CC1 [Compound 294]
- EC50 [1]: < 100 nM
- IC50 [2]: < 100 nM

Structure (SMILES): CC[C@@H]1C[C@]1(NC(=O)[C@@H]1C[C@@H](Oc2cc(-c3nc(C(C)C)cs3)nc3c(C)c(OC)ccc23)CN1C(=O)[C@@H](Nc1cccc(C(F)(F)F)c1)C(C)(C)C)C(=O)NS(=O)(=O)N(C)C [Compound 297]
- EC50 [1]: < 100 nM
- IC50 [2]: < 100 nM

Structure (SMILES): CC(C)(C)[C@H](Nc1cc(F)cc(C(F)(F)F)c1)C(=O)N1C[C@H](OC(=O)N2Cc3cccc(Cl)c3C2)C[C@H]1C(=O)N[C@]1(C(=O)NS(=O)(=O)C2(C)CC2)C[C@H]1C1CC1 [Compound 298]
- EC50 [1]: < 100 nM
- IC50 [2]: < 100 nM

Structure (SMILES): CC[C@@H]1C[C@]1(NC(=O)[C@@H]1C[C@@H](Oc2cc(-c3nc(C(C)C)cs3)nc3c(C)c(OC)ccc23)CN1C(=O)[C@@H](Nc1ccc(C(F)(F)F)cc1)C(C)(C)C)C(=O)NS(=O)(=O)C1(C)CC1 [Compound 299]
- EC50 [1]: < 100 nM
- IC50 [2]: < 100 nM

Structure (SMILES): CC[C@@H]1C[C@]1(NC(=O)[C@@H]1C[C@@H](Oc2cc(-c3nc(C(C)C)cs3)nc3c(C)c(OC)ccc23)CN1C(=O)[C@@H](Nc1ccc(F)c(C(F)(F)F)c1)C(C)(C)C)C(=O)NS(=O)(=O)C1(C)CC1 [Compound 301]
- EC50 [1]: < 100 nM
- IC50 [2]: < 100 nM

Structure (SMILES): C=C[C@@H]1C[C@]1(NC(=O)[C@@H]1C[C@@H](Oc2cc(-c3nc(C(C)C)cs3)nc3c(C)c(OC)ccc23)CN1C(=O)[C@@H](Nc1cccc(C(F)(F)F)c1)C(C)(C)C)C(=O)NS(=O)(=O)C1(C)CC1 [Compound 302]
- EC50 [1]: < 100 nM
- IC50 [2]: < 100 nM

Structure (SMILES): CC(C)(C)[C@H](Nc1cccc(C(F)(F)F)c1)C(=O)N1C[C@H](OC(=O)N2Cc3cccc(Cl)c3C2)C[C@H]1C(=O)N[C@]1(C(=O)NS(=O)(=O)C2(C)CC2)C[C@H]1C1CC1 [Compound 303]
- EC50 [1]: < 100 nM
- IC50 [2]: < 100 nM

Structure (SMILES): CC(C)(C)[C@H](Nc1cccc(OC(F)(F)F)c1)C(=O)N1C[C@H](OC(=O)N2Cc3cccc(Cl)c3C2)C[C@H]1C(=O)N[C@]1(C(=O)NS(=O)(=O)C2(C)CC2)C[C@H]1C1CC1 [Compound 304]
- EC50 [1]: < 100 nM
- IC50 [2]: < 100 nM

Structure (SMILES): C=C[C@@H]1C[C@]1(NC(=O)[C@@H]1C[C@@H](Oc2cc(-c3nc(C(C)C)cs3)nc3c(C)c(OC)ccc23)CN1C(=O)[C@@H](Nc1ccc(F)c(C(F)(F)F)c1)C(C)(C)C)C(=O)NS(=O)(=O)C1(C)CC1 [Compound 305]
- EC50 [1]: < 100 nM
- IC50 [2]: < 100 nM

Structure (SMILES): C=C[C@@H]1C[C@]1(NC(=O)[C@@H]1C[C@@H](Oc2cc(-c3nc(C(C)C)cs3)nc3c(C)c(OC)ccc23)CN1C(=O)[C@@H](Nc1ccc(F)c(C(F)(F)F)c1)C(C)(C)C)C(=O)NS(=O)(=O)C1CC1 [Compound 306]
- EC50 [1]: < 100 nM
- IC50 [2]: < 100 nM

Structure (SMILES): C=C[C@@H]1C[C@]1(NC(=O)[C@@H]1C[C@@H](Oc2cc(-c3nc(C(C)C)cs3)nc3c(C)c(OC)ccc23)CN1C(=O)[C@@H](Nc1cc(F)cc(C(F)(F)F)c1)C(C)(C)C)C(=O)NS(=O)(=O)N(C)C [Compound 307]
- EC50 [1]: < 100 nM
- IC50 [2]: < 100 nM
